These results are taken from patent publication US6608086B2, “Dihydropyridines and new uses thereof” (Synaptic Pharmaceutical Corporation, priority 1993, dated 2003).

SMILES strings stand for the structures. Read-outs that look alike come from different tables or passages of the source.

The target of data set [1] is T1, α1A Human Adrenergic Receptor (Homo sapiens, UniProt P25100).
T1 construct: The entire coding region of α1A (1719 bp); expressed in transfected cells
T1 sequence (P25100 1-572): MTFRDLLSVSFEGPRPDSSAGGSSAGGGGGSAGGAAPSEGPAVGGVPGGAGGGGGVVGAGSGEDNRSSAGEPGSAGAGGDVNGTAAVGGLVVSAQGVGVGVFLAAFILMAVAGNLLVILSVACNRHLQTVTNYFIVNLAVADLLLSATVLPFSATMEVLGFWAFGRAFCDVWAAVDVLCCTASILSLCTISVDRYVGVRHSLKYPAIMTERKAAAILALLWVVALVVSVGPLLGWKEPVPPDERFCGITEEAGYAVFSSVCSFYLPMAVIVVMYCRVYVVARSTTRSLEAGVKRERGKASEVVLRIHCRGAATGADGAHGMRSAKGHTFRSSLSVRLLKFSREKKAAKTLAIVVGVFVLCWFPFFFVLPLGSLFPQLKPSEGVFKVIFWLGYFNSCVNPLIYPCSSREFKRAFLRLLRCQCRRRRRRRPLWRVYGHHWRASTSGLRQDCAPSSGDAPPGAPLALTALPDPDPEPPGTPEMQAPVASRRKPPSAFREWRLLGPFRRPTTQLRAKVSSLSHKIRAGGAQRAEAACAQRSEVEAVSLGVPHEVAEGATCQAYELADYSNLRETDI
Put plainly: Radioligand binding, [3H]prazosin, cloned human α1A adrenergic receptor. The note with it: [3H]prazosin. Put shortly: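 Membranes from LM(tk−) cells transfected with cloned human α1A receptor, prepared in 50 mM Tris-HCl, 1 mM MgCl2, 0.1% ascorbic acid pH 7.5, were incubated with 0.5 nM [3H]prazosin at 37° C for 20 min. Nonspecific binding was defined with 10 μM phentolamine; bound ligand was separated by GF/B filtration.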

The target in data set [2] is T2, α1B Human Adrenergic Receptor (Homo sapiens, UniProt P35368).
T2 construct: The entire coding region of α1B (1563 bp); expressed in transfected cells
T2 sequence (P35368 1-520): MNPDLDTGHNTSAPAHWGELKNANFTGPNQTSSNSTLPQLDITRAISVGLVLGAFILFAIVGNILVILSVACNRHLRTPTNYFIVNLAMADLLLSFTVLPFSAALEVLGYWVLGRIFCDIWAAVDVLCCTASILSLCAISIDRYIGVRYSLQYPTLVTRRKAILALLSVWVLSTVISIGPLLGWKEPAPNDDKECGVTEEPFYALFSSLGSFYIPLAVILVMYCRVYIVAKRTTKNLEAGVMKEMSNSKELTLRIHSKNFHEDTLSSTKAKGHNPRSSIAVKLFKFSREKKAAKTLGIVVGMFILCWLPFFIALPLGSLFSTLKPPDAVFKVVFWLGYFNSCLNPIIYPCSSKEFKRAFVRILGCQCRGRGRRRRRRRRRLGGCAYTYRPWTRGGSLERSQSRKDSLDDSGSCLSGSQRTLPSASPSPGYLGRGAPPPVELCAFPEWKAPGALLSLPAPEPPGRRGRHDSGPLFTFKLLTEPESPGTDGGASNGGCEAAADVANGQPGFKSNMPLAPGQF
Put plainly: Radioligand binding, [3H]prazosin, cloned human α1B adrenergic receptor. Here is the method: (§1) The protocols for these experiments are given below.
(§2) These cell lines were prepared by transfecting the cloned cDNA or cloned genomic DNA or constructs containing both genomic DNA and cDNA encoding the human α-adrenergic receptors as follows:
α1B Human Adrenergic Receptor:
The construct involved ligating the full-length containing EcoRI brainstem cDNA fragment from λ ZapII into the expression vector. Stable cell lines were selected as described above.
(§3) Radioligand Binding Assays:
(§4) Transfected cells from culture flasks were scraped into 5 ml of 5 mM Tris-HCl, 5 mM EDTA, pH 7.5, and lysed by sonication. The cell lysates were centrifuged at 1000 rpm for 5 min at 4° C., and the supernatant was centrifuged at 30,000× g for 20 min at 4° C. The pellet was suspended in 50 mM Tris-HCl, 1 mM MgCl2, and 0.1% ascorbic acid at pH 7.5. Binding of the α1 antagonist [^3H]prazosin (0.5 nM, specific activity 76.2 Ci/mmol) to membrane preparations of LM(tk−) cells was done in a final volume of 0.25 ml and incubated at 37° C. for 20 min. Nonspecific binding was determined in the presence of 10 μM phentolamine. The reaction was stopped by filtration through GF/B filters using a cell harvester.

In data set [3] the target is T3, α1C Human Adrenergic Receptor (Homo sapiens, UniProt P35348).
T3 construct: The entire coding region of α1C (1401 bp); expressed in transfected cells
T3 sequence (P35348 1-466): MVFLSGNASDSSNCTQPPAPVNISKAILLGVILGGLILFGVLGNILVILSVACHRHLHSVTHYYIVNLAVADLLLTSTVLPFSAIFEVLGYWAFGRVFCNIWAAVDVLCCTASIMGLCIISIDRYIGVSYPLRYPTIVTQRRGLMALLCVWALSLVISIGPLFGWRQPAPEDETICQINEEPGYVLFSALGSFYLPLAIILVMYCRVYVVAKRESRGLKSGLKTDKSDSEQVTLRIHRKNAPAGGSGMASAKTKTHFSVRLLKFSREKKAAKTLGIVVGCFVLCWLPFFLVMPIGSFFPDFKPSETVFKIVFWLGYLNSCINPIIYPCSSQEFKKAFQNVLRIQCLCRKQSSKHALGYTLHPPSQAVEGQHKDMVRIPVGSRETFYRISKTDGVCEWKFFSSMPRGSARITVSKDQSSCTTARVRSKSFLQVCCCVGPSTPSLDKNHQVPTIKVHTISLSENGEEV
Put plainly: Radioligand binding, [3H]prazosin, cloned human α1C adrenergic receptor. Here is the method: as §1, §2
α1C Human Adrenergic Receptor:
The construct involved ligating three partial overlapping fragments: a 5′, 0.6 kb HincII genomic clone, a central 1.8 EcoRI hippocampal cDNA clone, and a 3′ 0.6Kb PstI genomic clone. The hippocampal cDNA fragment overlaps with the 5′ and 3′ genomic clones so that the HincII and PstI sites at the 5′ and 3′ ends of the cDNA clone, respectively, were utilized for ligation. This full-length clone was cloned into the KpnI site of the expression vector, using the 5′ and 3′ KpnI sites of the fragment, derived from vector (i.e., pBluescript) and 3′-untranslated sequences, respectively. Stable cell lines were selected as described above.
as §3, §4

Where [4] appears, read: cloned human α1A receptor, LM(tk−) cell membranes, read-out: pKi alpha-1 1a (converted).
Where [5] appears, read: cloned human α1B receptor, LM(tk−) cell membranes, read-out: pKi alpha-1 1b (converted).
[6] abbreviates: cloned human α1C receptor, LM(tk−) cell membranes, read-out: pKi alpha-1 1c (converted).
[7] abbreviates: cloned human receptor, LM(tk-) cell membranes, mean, read-out: PKi alpha-1 1a (converted).
[8] abbreviates: cloned human receptor, LM(tk-) cell membranes, mean, read-out: PKi alpha-1 1b (converted).
The mark [9] stands for this setting: cloned human receptor, LM(tk-) cell membranes, mean, read-out: PKi alpha-1 1c (converted).

With `CC1=C(C(=O)O)C(c2ccc([N+](=O)[O-])cc2)C(C(=O)NCCCN2CCC(c3ccccc3)(c3ccccc3)CC2)=C(COCCN=[N+]=[N-])N1` (stereo not drawn) [Example 153, 2-((2-Azidoethyl)oxy)methyl-1,4-dihydro-6-methyl-4-(4-nitro) phenyl-3-(N-(3-(4,4-diphenylpiperidin-1-yl)propyl))carboxamidopyridine-5-carboxylic acid], the melting point (as a rule, the temperature, or range, at which the solid turns liquid) was 135 °C (dec.). Further, the Ki in data set [1] (setting [4]) was 1910 nM. Moreover, in data set [2] (setting [5]), the Ki was 380 nM. Further, the Ki in data set [3] (setting [6]) is 24 nM.
With `CCOC(=O)C1(c2ccccc2)CCN(CCCNC(=O)C2=C(COCCN=[N+]=[N-])NC(CC)=C(C(=O)O)C2c2ccc([N+](=O)[O-])cc2)CC1` (stereo not drawn) [Example 189], the melting point is 109 to 110 °C. In addition, the Ki in data set [1] (setting [7]) is 4680 nM. Besides, in data set [2] (setting [8]), the Ki is 1410 nM. Further, the Ki in data set [3] (setting [9]) was 26.3 nM.
`CCOC(=O)C1(c2ccccc2)CCN(CCCNC(=O)C2=C(COCCN=[N+]=[N-])NC(CC)=C(C(N)=O)C2c2ccc([N+](=O)[O-])cc2)CC1` (stereo not drawn) [Example 190, 2-[(2-Azidoethoxy)methyl]-5-carboxamido-3-{N-[3-(4-ethoxycarbonyl-4-phenylpiperidin-1-yl)propyl]}carboxamido-1,4-dihydro-6-ethyl-4-(4-nitrophenyl)pyridine] showed a melting point of 63 to 64 °C. In data set [1] (setting [7]), the Ki is 1350 nM. Also, the Ki in data set [2] (setting [8]) is 708 nM. Moreover, the Ki in data set [3] (setting [9]) was 5.37 nM.
As for `CCNC(=O)C1=C(CC)NC(CC)=C(C(=O)NCCCN2CCC(c3ccccc3)(c3ccc(OC)cc3)CC2)C1c1ccc([N+](=O)[O-])cc1` (stereo not drawn) [Example 111, 2,6-Diethyl-5-(N-ethyl)carboxamido-1,4-dihydro-3-{N-[3-(4-(4-methoxy)phenyl-4-phenylpiperidin-1-yl)propyl]}carboxamido-4-(4-nitrophenyl)pyridine], the melting point is 172 °C (dec.). For the same compound, the Ki in data set [1] (setting [4]) is 1780 nM. In addition, in data set [2] (setting [5]), the Ki was 955 nM. Moreover, the Ki in data set [3] (setting [6]) is 5.75 nM.
For the compound `CC1=C(C(N)=O)C(c2ccc([N+](=O)[O-])cc2)C(C(=O)NCCCN2CCC(C#N)(c3ccccc3)CC2)=C(COCCN=[N+]=[N-])N1` (stereo not drawn) [Example 214, 2-((2-Azidoethyl)oxy)methyl-5-carboxamido-3-(N-(3-(4-cyano-4-phenylpiperidin-1-yl)propyl)) carboxamido-1,4-dihydro-6-methyl-4-(4-nitro)phenylpyridine], the melting point was 81 °C (dec.). The Ki in data set [1] (setting [7]) is 2570 nM. For the same compound, the Ki in data set [2] (setting [8]) was 776 nM. The Ki in data set [3] (setting [9]) is 6.17 nM.
For `CCOC(=O)C1(c2ccccc2)CCN(CCCNC(=O)C2=C(COCCN=[N+]=[N-])NC(CC)=C(C(=O)OC)C2c2ccc([N+](=O)[O-])cc2)CC1` (stereo not drawn) [Example 195, 2-[(2-Azidoethoxy)methyl]-3-{N-[3-(4-ethoxycarbonyl-4-phenylpiperidin-1-yl)propyl]}carboxamido-1,4-dihydro-6-ethyl-5-methoxycarbonyl-4-(4-nitrophenyl)pyridine] the same measures were 56 to 57 °C, 288 nM, 129 nM and 7.08 nM.
